Like-named read-outs stand apart in the source and are kept apart here.
Key:
L02 cells [1] = assay: ROS assay (DCFH-DA, flow cytometry) in FFA-treated L02 cells; format: cell-based, human; details: FFA-induced L02 cells
Description: (§1) L02 cells were inoculated in 6-well plates at 1 × 10^5 cells/mL, and after completing the lipid-accumulating cell modeling treatment according to the method described in 2.1, the cells were collected and washed with 1× PBS buffer.
Reactive oxygen species (ROS) assay: ROS production was detected in the collected cells using a DCFH-DA fluorescent probe diluted in serum-free medium, and the stained cells were washed with 1× PBS buffer 3 times and then analyzed by flow cytometry.

L02 cells [2] = assay: Apoptosis test (Annexin V/PI, flow cytometry) in FFA-treated L02 cells; format: cell-based, human; details: after FFA treatment
Method: as §1
Apoptosis test: Binding Buffer was used to resuspend the modeling-treated cells, cells were stained with Annexin V/PI, and apoptosis was determined using flow cytometry.

L02 cells [3] = assay: Mitochondrial membrane potential test (JC-1) in FFA-treated L02 cells; format: cell-based, human; details: FFA-induced depolarization; 3d 20 μM
Method: as §1
Mitochondrial membrane potential (MMP) test: After the cells were co-incubated with FFAs and drugs for 24 h, the remaining medium was discarded and the cells were washed with 1× PBS buffer before being treated with JC-1 probe dye. A laser confocal microscope was used to take photographs, which were quantitatively analyzed using ImageJ software (V. 1.52a, Wayne Rasband National Institutes of Health, Bethesda, MD, USA).

C57BL/6J male mice = assay: HFD-induced MASH model in mice: serum and liver biochemistry, body and liver weight, histology; format: in vivo
Method: All animal studies were conducted in accordance with national legislation and local guidelines at the Center for Laboratory Animals in Tianjin University of Science and Technology and approved by the Animal Ethics Committee of Tianjin University of Science and Technology (8 March 2022, Tianjin, China). The C57BL/6J male mice (6 weeks) were purchased from Henan Scribex Biotechnology Co, Ltd (Zhenzhou, China). Following a one-week period of acclimatization, the mice were fed a high-fat diet (HFD) comprising 60% fat (TP23300, Trophic Animal Feed High-Tech Co., Ltd., (Nantong, China)) and a low-fat control diet (TP23302, Trophic Animal Feed High-Tech Co., Ltd., (Nantong, China)) for 16 weeks.
After 16 weeks of continuous feeding on a high-fat diet, key indicators were tested to determine modeling success and drug administration was initiated. The mice were randomly divided into seven groups (n = 10) according to their body weight. The groups were as follows: control group (control diet, 0.5% CMC-Na), model group (HFD, 0.5% CMC-Na), positive control group (HFD, 100 mg/kg Fenofibrate), elafibranor group (HFD, 30 mg/kg), and 3d group (HFD, 3, 10, 30 mg/kg). The experiment was conducted over a period of eight weeks.
After fasting for 12 h, the mice were anaesthetized and blood samples were collected, as were the mice liver tissues. The ileal contents were collected and immediately frozen in liquid nitrogen and then transferred to storage at −80 °C. The blood samples were subjected to centrifugation at 3000 rpm/min for 10 min to obtain supernatant serum, which was stored at −80 °C. The liver tissues were weighed, and a portion of the liver was preserved in 4% paraformaldehyde for subsequent pathological sectioning, including staining with H&E, Masson, and Oil Red O. The remaining samples were stored at −80 °C for testing of various biochemical indices.
The serum levels of TG, total cholesterol (TC), low-density lipoprotein cholesterol (LDL-C), […] aminotransferase (AST), ALT, and TNF-α were determined according to the instructions of the kit. The levels of glutathione (GSH) and superoxide dismutase (SOD) were measured using liver tissue homogenates. The kits were purchased from the Nanjing Jiancheng Institute of Biological Engineering (Nanjing, China).

gut microbiota = assay: Gut microbiota composition by 16S rRNA sequencing in MASH mice; format: in vivo
Method: Proteome sequencing of liver tissue samples was performed according to the specific requirements of the protocol by Beijing Qinglian Baiao Biotechnology Co., Ltd. (Beijing, China). Mouse fecal samples were collected and frozen in liquid nitrogen and stored at −80 °C.
Total DNA was extracted by QIAamp DNA Stool Mini Kit, homogenized by lysis buffer, digested by proteinase, and purified by a centrifugal column and then passed through NanoDrop and agarose gel electrophoresis for quality control. PCR amplification was performed with primers specific to the V3-V4 region of the bacterial 16S rRNA gene (341F: 5′-CCTAYGGGRBGCASCAG-3′; 806R: 5′-[…]-3′), and the reaction system consisted of 2 × Taq PCR Master Mix, and the program was 95 °C pre-denaturation for […] (95 °C for 30 s, 55 °C for 30 s, 72 °C for 45 s) and extension at 72 °C for 10 min. After purification, bipartite sequencing was performed using the Illumina MiSeq PE300 platform. After QIIME2 quality control, the raw data were clustered into OTUs with 97% similarity, and the species were annotated based on the Silva database to analyze the Alpha/Beta diversity and differential flora.

[4] = Pharmacokinetics of 3d in male SD rats, gavage; format: in vivo; details: for MRT last: read-out: MRT(0-t) (converted)
Method: The pharmacokinetics of 3d in vivo were evaluated using male SD rats. Following a 12 h fast, the rats were administered 3d (30 mg/kg) via gavage or tail vein injection, respectively, and blood samples were collected within 24 h for analysis of 3d blood concentration via HPLC. The PK parameters were calculated using the DAS 3.0, and oral bioavailability (F) was obtained by the following formula.F = AUCpo × Di.v/AUCi.v × Dpo × 100%(1)

[5] = HFD mice, liver tissue homogenates
[6] = HFD-fed mice, 30 mg/kg, p < 0.05 vs. model
[7] = male, SD, rat, blood, po, 30 mg/kg, rats, administered orally

Compound: CNc1ccc(C(=O)/C=C/c2cc(C)c(OC(C)(C)C(=O)OC(C)(C)C)c(C)c2)cc1 [3d]
- intracellular ROS levels (L02 cells [1]): significant decrease in ROS levels
- apoptosis (L02 cells [2]): decrease to near-normal levels
- mitochondrial membrane potential (L02 cells [3]): partially restored
- liver fibrosis (Masson staining) (C57BL/6J male mice; HFD mice): successfully reversed
- liver steatosis and lipid accumulation (HE, Oil Red O sections) (C57BL/6J male mice; HFD mice): significantly reduce the steatosis and ballooning in the liver and bring it back to normal
- serum TNF-α levels (C57BL/6J male mice; HFD mice): reversed and returned to normal levels
- serum levels of LDL-C (C57BL/6J male mice; HFD mice): markedly diminish
- body weight (C57BL/6J male mice; HFD mice, 8 weeks of treatment): no significant effect
- serum TG levels (C57BL/6J male mice; HFD mice, 8 weeks, fenofibrate 100 mg/kg, elafibranor 30 mg/kg, 3d 3, 10, 30 mg/kg): decreased and returned to normal levels
- liver GSH content (C57BL/6J male mice; [5]): counteracting the reduction
- liver SOD content (C57BL/6J male mice; [5]): counteracting the reduction
- TC levels (C57BL/6J male mice; HFD mice, 3d 3, 10, 30 mg/kg): dose-dependent reduction
- serum ALT activity (C57BL/6J male mice; HFD mice, 3d 3, 10, 30 mg/kg): dose-dependent reduction
- serum AST activity (C57BL/6J male mice; HFD mice, 3d 3, 10, 30 mg/kg): dose-dependent reduction
- serum LDL-C decline (C57BL/6J male mice; [6]): 45%
- serum TC reduction (C57BL/6J male mice; [6]): 32%
- serum TG decrease (C57BL/6J male mice; [6]): 39%
- serum TNF-α reduction (C57BL/6J male mice; [6]): 57%
- Bifidobacterium rise (gut microbiota): 1.9 fold
- Lactobacillus increase (gut microbiota): 2.7 fold
- Proteobacteria decrease (gut microbiota; p < 0.05): 68%
- abundance of Firmicutes and Actinobacteria (gut microbiota; phylum level): significantly increased
- abundance of Proteobacteria and Deferribacteres (gut microbiota; phylum level): significantly reduced and returned to normal levels
- Shannon index (gut microbiota; α-diversity): decreased
- Simpson index (gut microbiota; α-diversity): increased
- community richness, Chao1 and ACE indices (gut microbiota; α-diversity): no significant effect
- AUC(0-t) ([4]; SD rats, gavage, 30 mg/kg): 30,236 ng/L*min
- AUC(0-∞) ([4]; SD rats, gavage, 30 mg/kg): 34,864 ng/L*min
- AUMC(0-t) ([4]; SD rats, gavage, 30 mg/kg): 7,351,242
- AUMC(0-∞) ([4]; SD rats, gavage, 30 mg/kg): 12,023,223
- Cmax ([4]; SD rats, gavage, 30 mg/kg): 0.113 ng/mL
- Cz ([4]; SD rats, gavage, 30 mg/kg): 15 ng/L
- Tmax ([4]; SD rats, gavage, 30 mg/kg): 2 h
- VRT(0-t) ([4]; SD rats, gavage, 30 mg/kg): 31,533 min^2
- VRT(0-∞) ([4]; SD rats, gavage, 30 mg/kg): 107,286 min^2
- Zeta ([4]; SD rats, gavage, 30 mg/kg): 0.003 min⁻¹
- Cmax ([4]; male, SD, rat, blood, po, 30 mg/kg, SD rats, gavage, 30 mg/kg, read-out: Cmax): 0.113 ng/mL
- MRT last ([4]; male, SD, rat, blood, po, 30 mg/kg, SD rats, gavage, 30 mg/kg): 4.05 h
- half-life [4, 7]: 3.4 h
- MRT last [4, 7]: 4 h
- Tmax ([4]; male, SD, rat, blood, po, 30 mg/kg, rats, administered orally, read-out: time of peak concentration): 2 h
- bioavailability ([4]; male, SD, rat, blood, po, rats, 30 mg/kg gavage vs tail vein injection, read-out: oral bioavailability (F)): 27.9%
- MRT inf ([4]; male, rat, blood, po, SD rats, gavage, 30 mg/kg, read-out: MRT(0-∞) (converted)): 5.73 h

From PMC12113347, “Compound 3d Attenuates Metabolic Dysfunction-Associated Steatohepatitis via Peroxisome Proliferator-Activated Receptor Pathway Activation and Inhibition of Inflammatory and Apoptotic Signaling” (Metabolites, 2025)
